We go through 15 molecules from patent US10780090B2, “Heteroaryl compounds useful as inhibitors of SUMO activating enzyme” (Millennium Pharmaceuticals, Inc., priority 2014, dated 2020).

The IC50 is the point on the concentration scale where inhibition reaches its midpoint. A word on the inhibition: it is the percentage by which the read-out fell short of the control.

Like-named read-outs stand apart in the source and are kept apart here. Bounds are passed on as bounds.

The assay deals with recombinant human SAE enzyme (Homo sapiens (Human), UniProt Q9UBT2). Briefly: SAE HTRF enzyme assay. Type of assay: biochemical. As to conditions: for inhibition at 0.111 µM: read-out: Percent Inhibition. In a few lines: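 Sumoylation of Ubc9-GST by SAE was followed at low ATP (0.5 μM), pH 7.5, 24° C. for 105 min. Product was detected by HTRF with antibody pairs against Flag and GST tags.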
recombinant human SAE enzyme, sequence (Q9UBT2 whole entry): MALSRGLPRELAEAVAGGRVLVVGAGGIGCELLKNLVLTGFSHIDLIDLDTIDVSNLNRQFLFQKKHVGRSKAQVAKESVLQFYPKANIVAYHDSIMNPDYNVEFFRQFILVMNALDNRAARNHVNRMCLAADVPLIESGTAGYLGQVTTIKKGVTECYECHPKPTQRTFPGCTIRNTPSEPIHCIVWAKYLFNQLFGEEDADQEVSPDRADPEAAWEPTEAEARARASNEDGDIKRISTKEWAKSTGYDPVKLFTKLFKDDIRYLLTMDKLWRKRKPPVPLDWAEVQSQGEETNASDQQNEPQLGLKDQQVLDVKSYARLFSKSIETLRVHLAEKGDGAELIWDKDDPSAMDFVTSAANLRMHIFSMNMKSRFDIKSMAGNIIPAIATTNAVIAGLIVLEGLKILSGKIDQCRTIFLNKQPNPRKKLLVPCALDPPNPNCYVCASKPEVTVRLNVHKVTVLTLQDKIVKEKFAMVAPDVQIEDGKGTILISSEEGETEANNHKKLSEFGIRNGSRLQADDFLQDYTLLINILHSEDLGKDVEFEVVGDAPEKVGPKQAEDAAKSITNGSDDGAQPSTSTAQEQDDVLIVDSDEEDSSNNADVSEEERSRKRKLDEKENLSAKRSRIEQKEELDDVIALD
recombinant human SAE enzyme, sequence (Q9UBE0 whole entry partner): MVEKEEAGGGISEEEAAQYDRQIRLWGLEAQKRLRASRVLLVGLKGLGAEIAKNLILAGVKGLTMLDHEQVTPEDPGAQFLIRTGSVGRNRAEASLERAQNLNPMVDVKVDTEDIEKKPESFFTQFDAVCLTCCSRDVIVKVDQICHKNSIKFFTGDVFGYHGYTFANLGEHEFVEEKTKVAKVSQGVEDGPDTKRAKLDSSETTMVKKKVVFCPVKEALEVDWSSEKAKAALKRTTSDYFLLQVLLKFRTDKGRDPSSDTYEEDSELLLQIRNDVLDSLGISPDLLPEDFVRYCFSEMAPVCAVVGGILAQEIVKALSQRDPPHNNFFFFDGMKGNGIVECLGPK

Where [1] appears, read: SAE inhibition at compound concentration 0.111 μM.
Setting [2] is: SAE inhibition, class symbols, legend in nM.

With `NS(=O)(=O)OC[C@H]1C[C@@H](Nc2ncncc2C(=O)c2cc(C3SCCc4ccc(Cl)cc43)cs2)[C@H](O)[C@@H]1O` (single isomer, unassigned) [I-278b, [(1R,2R,3S,4R)-4-{[5-({4-[(1R)-7-chloro-3,4-dihydro-1H-isothiochromen-1-yl]-2-thienyl}carbonyl)pyrimidin-4-yl]amino}-2,3-dihydroxycyclopentyl]methyl sulfamate or [(1R,2R,3S,4R)-4-{[5-({4-[(1S)-7-chloro-3,4-dihydro-1H-isothiochromen-1-yl]-2-thienyl}carbonyl)pyrimidin-4-yl]amino}-2,3-dihydroxycyclopentyl]methyl sulfamate], the “Percent Inhibition” value (Concentration 0.111 μM) was determined as 99. Moreover, the half-inhibitory concentration (IC50) (class symbols A/B/C) is under 10 nM.

As to `NS(=O)(=O)OC[C@H]1C[C@@H](Nc2ncncc2C(=O)c2cc(C3(c4cccc(Cl)c4)CCCO3)cs2)C[C@@H]1O` (single isomer, unassigned) [I-20a, [(1R,2S,4R)-4-{[5-({4-[(2S)-2-(3-chlorophenyl)tetrahydrofuran-2-yl]-2-thienyl}carbonyl)pyrimidin-4-yl]amino}-2-hydroxycyclopentyl]methyl sulfamate or [(1R,2S,4R)-4-{[5-({4-[(2R)-2-(3-chlorophenyl)tetrahydrofuran-2-yl]-2-thienyl}carbonyl)pyrimidin-4-yl]amino}-2-hydroxycyclopentyl]methyl sulfamate], where the note is “Concentration 0.111 μM”, the “Percent Inhibition” value was 81. In addition, the IC50 (class symbols A/B/C) was in the range of 10 to 100 nM.

In the case of `Cc1sc(C(=O)c2cncnc2N[C@@H]2C[C@H](COS(N)(=O)=O)[C@@H](O)C2)cc1[C@@H]1OCCc2ccc(C(F)(F)F)cc21` (mixture of isomers) [I-258, [(1R,2S,4R)-2-hydroxy-4-{[5-({5-methyl-4-[(1R)-7-(trifluoromethyl)-3,4-dihydro-1H-isochromen-1-yl]-2-thienyl}carbonyl)pyrimidin-4-yl]amino}cyclopentyl]methyl sulfamate and [(1R,2S,4R)-2-hydroxy-4-{[5-({5-methyl-4-[(1S)-7-(trifluoromethyl)-3,4-dihydro-1H-isochromen-1-yl]-2-thienyl}carbonyl)pyrimidin-4-yl]amino}cyclopentyl]methyl sulfamate], under “Concentration 0.111 μM”, the “Percent Inhibition” value is given as 100. For the setting “class symbols A/B/C”, the IC50 is under 10 nM.

For the molecule `Cc1sc(C(=O)c2cncnc2N[C@@H]2C[C@H](COS(N)(=O)=O)[C@@H](O)C2)cc1[C@@H]1OCCc2ccc(C3CC3)cc21` (single isomer, unassigned) [I-277a, [(1R,2S,4R)-4-{[5-({4-[(1R)-7-cyclopropyl-3,4-dihydro-1H-isochromen-1-yl]-5-methyl-2-thienyl}carbonyl)pyrimidin-4-yl]amino}-2-hydroxycyclopentyl]methyl sulfamate or [(1R,2S,4R)-4-{[5-({4-[(1S)-7-cyclopropyl-3,4-dihydro-1H-isochromen-1-yl]-5-methyl-2-thienyl}carbonyl)pyrimidin-4-yl]amino}-2-hydroxycyclopentyl]methyl sulfamate], under “Concentration 0.111 μM”, the “Percent Inhibition” value stood at 100. In addition, under “class symbols A/B/C”, the 50% inhibitory concentration (IC50) was under 10 nM.

Take `C[C@](O)(c1cccc(Cl)c1)c1coc(C(=O)c2cncnc2N[C@@H]2C[C@H](COS(N)(=O)=O)[C@@H](O)C2)c1` (single isomer, unassigned) [I-30b, {(1R,2S,4R)-4-[(5-{4-[(1S)-1-(3-chlorophenyl)-1-hydroxyethyl]-2-furoyl}pyrimidin-4-yl)amino]-2-hydroxycyclopentyl}methyl sulfamate or {(1R,2S,4R)-4-[(5-{4-[(1R)-1-(3-chlorophenyl)-1-hydroxyethyl]-2-furoyl}pyrimidin-4-yl)amino]-2-hydroxycyclopentyl}methyl sulfamate]: the “Percent Inhibition” value (Concentration 0.111 μM) is reported as 88. Further, the IC50 (class symbols A/B/C) lay in the range of 10 to 100 nM.

For `C#Cc1ccc2c(c1)[C@H](c1cc(C(=O)c3cncnc3N[C@@H]3C[C@H](COS(N)(=O)=O)[C@@H](O)C3)sc1C)OCC2` (single isomer, unassigned) [I-252a, [(1R,2S,4R)-4-{[5-({4-[(1R)-7-ethynyl-3,4-dihydro-1H-isochromen-1-yl]-5-methyl-2-thienyl}carbonyl)pyrimidin-4-yl]amino}-2-hydroxycyclopentyl]methyl sulfamate or [(1R,2S,4R)-4-{[5-({4-[(1S)-7-ethynyl-3,4-dihydro-1H-isochromen-1-yl]-5-methyl-2-thienyl}carbonyl)pyrimidin-4-yl]amino}-2-hydroxycyclopentyl]methyl sulfamate], the “Percent Inhibition” value (Concentration 0.111 μM) is on record as 71. Besides, the half-inhibitory concentration (IC50) (class symbols A/B/C) was 10 to 100 nM.

Take `N#Cc1sc(C(=O)c2cncnc2N[C@@H]2C[C@H](COS(N)(=O)=O)[C@@H](O)C2)cc1Cc1cccc(Cl)c1` [I-179, {(1R,2S,4R)-4-[(5-{[4-(3-chlorobenzyl)-5-cyano-2-thienyl]carbonyl}pyrimidin-4-yl)amino]-2-hydroxycyclopentyl}methyl sulfamate]: the inhibition at 0.111 µM (Concentration 0.111 μM) came out at 86%. In addition, under “class symbols A/B/C”, the IC50 is 10 to 100 nM.

Regarding “[(1R,2S,4R)-4-{[5-({5-chloro-4-[(1R)-1-hydroxy-2-phenylethyl]-2-thienyl}carbonyl)pyrimidin-4-yl]amino}-2-hydroxycyclopentyl]methyl sulfamate and [(1R,2S,4R)-4-{[5-({5-chloro-4-[(1S)-1-hydroxy-2-phenylethyl]-2-thienyl}carbonyl)pyrimidin-4-yl]amino}-2-hydroxycyclopentyl]methyl sulfamate [I-136]”, the “Percent Inhibition” value (Concentration 0.111 μM) is given as 96. Also, the IC50 (class symbols A/B/C) was under 10 nM.

`NS(=O)(=O)OC[C@H]1C[C@@H](Nc2ncncc2C(=O)c2ccc(Cc3ccccc3)o2)C[C@@H]1O` [I-127, [(1R,2S,4R)-4-{[5-(5-benzyl-2-furoyl)pyrimidin-4-yl]amino}-2-hydroxycyclopentyl]methyl sulfamate]: the inhibition at 0.111 µM (Concentration 0.111 μM) stood at 95%. Also, the concentration for half-maximal inhibition (IC50) (class symbols A/B/C) is under 10 nM.

Regarding `Cc1sc(C(=O)c2cncnc2N[C@@H]2C[C@H](COS(N)(=O)=O)[C@@H](OC(=O)Cc3ccc(OP(=O)(O)O)cc3)C2)cc1[C@@H]1OCCc2ccc(Cl)cc21` [I-364, [(1S,2R,4R)-4-[[5-[4-[(1R)-7-chloroisochroman-1-yl]-5-methyl-thiophene-2-carbonyl]pyrimidin-4-yl]amino]-2-(sulfamoyloxymethyl)cyclopentyl] 2-(4-phosphonooxyphenyl)acetate], under setting [1], the inhibition at 0.111 µM came out at 13%.

For the molecule `Cc1ccc(Cc2csc(C(=O)c3cncnc3N[C@@H]3C[C@H](COS(N)(=O)=O)[C@@H](O)C3)c2)o1` [I-237, [(1R,2S,4R)-2-Hydroxy-4-{[5-({4-[(5-methyl-2-furyl)methyl]-2-thienyl}carbonyl)pyrimidin-4-yl]amino}cyclopentyl]methyl sulfamate], the inhibition at 0.111 µM (Concentration 0.111 μM) was 25%. Also, the 50% inhibitory concentration (IC50) (class symbols A/B/C) was 100 to 1000 nM.

For the molecule `Cc1sc(C(=O)c2cncnc2N[C@@H]2C[C@H](COS(N)(=O)=O)[C@@H](O)C2)cc1[C@@H]1OCCn2c1nc1ccccc12` (mixture of isomers) [I-344, [(1R,2S,4R)-4-{[5-({4-[(1S)-3,4-dihydro-1H-[1,4]oxazino[4,3-a]benzimidazol-1-yl]-5-methyl-2-thienyl}carbonyl)pyrimidin-4-yl]amino}-2-hydroxycyclopentyl]methyl sulfamate and [(1R,2S,4R)-4-{[5-({4-[(1R)-3,4-dihydro-1H-[1,4]oxazino[4,3-a]benzimidazol-1-yl]-5-methyl-2-thienyl}carbonyl)pyrimidin-4-yl]amino}-2-hydroxycyclopentyl]methyl sulfamate], the “Percent Inhibition” value under setting [1] worked out at 99%. The 50% inhibitory concentration (IC50) under setting [2] is under 10 nM.

Take `NS(=O)(=O)OC[C@H]1C[C@@H](Nc2ncncc2C(=O)c2cc([C@@H]3OCCc4ccc(F)cc43)cs2)C[C@@H]1O` (single isomer, unassigned) [I-267b, [(1R,2S,4R)-4-{[5-({4-[(1R)-7-fluoro-3,4-dihydro-1H-isochromen-1-yl]-2-thienyl}carbonyl)pyrimidin-4-yl]amino}-2-hydroxycyclopentyl]methyl sulfamate or [(1R,2S,4R)-4-{[5-({4-[(1S)-7-fluoro-3,4-dihydro-1H-isochromen-1-yl]-2-thienyl}carbonyl)pyrimidin-4-yl]amino}-2-hydroxycyclopentyl]methyl sulfamate]: the “Percent Inhibition” value (Concentration 0.111 μM) stood at 100. Also, the IC50 (class symbols A/B/C) was under 10 nM.

With `Cc1sc(C(=O)c2cncnc2N[C@@H]2C[C@H](COS(N)(=O)=O)[C@@H](O)C2)cc1[C@@H]1OCCc2ccsc21` (single isomer, unassigned) [I-269a, [(1R,2S,4R)-4-{[5-({4-[(7S)-4,7-dihydro-5H-thieno[2,3-c]pyran-7-yl]-5-methyl-2-thienyl}carbonyl)pyrimidin-4-yl]amino}-2-hydroxycyclopentyl]methyl sulfamate or [(1R,2S,4R)-4-{[5-({4-[(7R)-4,7-dihydro-5H-thieno[2,3-c]pyran-7-yl]-5-methyl-2-thienyl}carbonyl)pyrimidin-4-yl]amino}-2-hydroxycyclopentyl]methyl sulfamate], the “Percent Inhibition” value (Concentration 0.111 μM) was 101. Also, the 50% inhibitory concentration (IC50) (class symbols A/B/C) is under 10 nM.

`Cc1sc(C(=O)c2cncnc2N[C@@H]2C[C@H](COS(N)(=O)=O)[C@@H](O)C2)cc1[C@H]1NCCc2ccccc21` (single isomer, unassigned) [I-292a, [(1R,2S,4R)-2-hydroxy-4-{[5-({5-methyl-4-[(1S)-1,2,3,4-tetrahydroisoquinolin-1-yl]-2-thienyl}carbonyl)pyrimidin-4-yl]amino}cyclopentyl]methyl sulfamate or [(1R,2S,4R)-2-hydroxy-4-{[5-({5-methyl-4-[(1R)-1,2,3,4-tetrahydroisoquinolin-1-yl]-2-thienyl}carbonyl)pyrimidin-4-yl]amino}cyclopentyl]methyl sulfamate]: the “Percent Inhibition” value under setting [1] came out at 99%. Besides, the IC50 under setting [2] was under 10 nM.
